We go through two compounds from patent US20160303069A1, “MEDICAL USE OF COMPOUND FROM GARCINIA ESCULENTA” (Hong Kong Baptist University, priority 2015, published 2016).

Assay [1] relates to Eca109 cells. Description: scratch (wound healing) migration assay. It is filed as cell-based, human. As for the experimental part: (§1) Eca109 and KYSE150 are cultured in RPMI1640 medium supplemented with 10% fetal calf serum, 100 U/ml penicillin and 100 μg/ml streptomycin in a humidified atmosphere containing 5% CO2 at 37° C. 0.25% trypsin is used for digestion and passage; cells under logarithmic growth phase are used in the experiment.
(§2) Eca109 and KYSE150 under logarithmic growth phase are seeded into 24-well plate (1×10^5 cells/well). When monolayer of cell is formed, use a sterile 100 μl pipette tip to create a scratch on the monolayer, and fresh medium containing different concentration of Griffipavixanthone (GPX) or Sorafenib (SFB) (20 μM/well) are added. Cells are observed at 12 hours and 36 hours after scratch and imaged under IX83 microscope (Olympus, Tokyo, Japan).

Assay [2] relates to KYSE150 cells. Description: scratch (wound healing) migration assay. It is filed as cell-based, human. As for the experimental part: as §1, §2
Assay [3] deals with Eca109 cells. Description: transwell cell migration assay. Conditions: 5, 10, 15, 20 μM, 24 hours. It is filed as cell-based, human. As for the experimental part: as §1
(§3) Eca109 and KYSE150 (5×10^4 cells/well) are seeded to the upper chamber (8 μm pore size) of the transwell chambers. The upper chamber contains serum-free; the lower chamber contains 10% FBS. Cells are treated with GPX for 24 hours, medium is then removed, non-migrated cells found on the upper chamber are removed using a cotton swab. Migrated cells found on the bottom chamber are fixed with 4% paraformaldehyde, stained with 0.1% crystal violet and scored under a light microscope in five random fields as shown in FIG. 3. Experimental data are expressed as mean±standard deviation, using SPSS18.0 statistical software for analysis, One-Way ANOVA for variance, comparison using Student t test, **P<0.01, ***P<0.001 is considered as statistically significant difference.

Assay [4] relates to KYSE150 cells. Description: transwell cell migration assay. Type of assay: cell-based, human. Conditions: 5, 10, 15, 20 μM, 24 hours. As for the experimental part: as §1, §3
Assay [5] deals with Eca109 cells. In words: matrigel transwell cell invasion assay. Particulars: 5, 10, 15, 20 μM, 24 hours. It is filed as cell-based, human. As for the experimental part:
as §1
Transwell chambers (8 μm pore size) used in cell migration assay are pre-incubated with matrigel for 2 hours, Eca109 (1×10^5 cells/well) are seeded onto serum-free upper chambers, lower chamber contains 10% FBS medium. Cells are treatment with GPX for 24 hours, thereafter, medium is discarded, cotton swab is used to gently remove the non invaded cells in the upper chamber. Invaded cells in the lower chamber are fixed with 4% paraformaldehyde, stained with 0.1% crystal violet and scored under a light microscope. Experimental data are expressed as mean±standard deviation, using SPSS18.0 statistical software for analysis, One-Way ANOVA for variance, comparison using Student t test, *P<0.05, **P<0.01, ***P<0.001 is considered as statistically significant difference.

The test system of assay [6] is KYSE150 cells. In words: matrigel transwell cell invasion assay. It is filed as cell-based, human. Particulars: 5, 10, 15, 20 μM, 24 hours.
For assay [7], the system named is Eca109 cells. In words: colony formation / cell proliferation assay. Type of assay: cell-based, human. Particulars: 5, 10, 15, 20 μM, 48 hours treatment, 7 days incubation. As for the experimental part:
as §1
(§4) Eca109 (500 cells/well) and KYSE150 (250 cells/well) are seeded in a 6-well plate. […] On the 7th day, cells are fixed with 4% paraformaldehyde, stained with 0.1% crystal violet and imaged under a light microscope.

The subject of assay [8] is KYSE150 cells. In words: colony formation / cell proliferation assay. It is filed as cell-based, human. Conditions: 5, 10, 15, 20 μM, 48 hours treatment, 7 days incubation. As for the experimental part: as §1, §4
In assay [9] the test system is Eca109 cells. In words: cell cycle analysis by PI flow cytometry. It is filed as cell-based, human. Particulars: 48 hours. As for the experimental part:
(§5) Eca109 and KYSE150 are cultured in RPMI1640 medium supplemented with 10% fetal calf serum, 100 U/ml penicillin and 100 μg/ml streptomycin in a humidified atmosphere containing 5% CO2 at 37° C. 0.25% trypsin is used for digestion and passage, cells under logarithmic growth phase are used in the experiment.
Eca109 and KYSE150 (2×10^5 cells/well) are seeded to a 6-well place and treated with GPX or SFB (20 μM/well) for 48 hours. Cells are then harvested and fixed in 70% cold ethanol and stored 4° C. overnight. The cells are incubated with PI containing RNase A for 30 mins at 37° C., and are analyzed by flow cytometry (BD Biosciences Inc., Franklin Lakes, N.J., USA).

Assay [10] concerns KYSE150 cells. Description: cell cycle analysis by PI flow cytometry. Type of assay: cell-based, human. Conditions: 48 hours. The procedure:
as §5
[…] Cells are then harvested and fixed in 70% cold ethanol and stored 4° C. overnight. The cells are incubated with PI containing RNase A for 30 mins at 37° C., and are analyzed by flow cytometry (BD Biosciences Inc., Franklin Lakes, N.J., USA).

Another assay has as its system KYSE150 lung metastasis. In words: lung metastasis animal model (KYSE150 cells injected intravenously). Type of assay: in vivo. Conditions: nude mice, 20 mg/kg every another day for 35 days; for number of lung tumor nodules / size / area of lung nodules (metastatic foci): HE staining, 20 mg/kg. As for the experimental part:
Eca109 and KYSE150 are cultured in RPMI1640 medium supplemented with 10% fetal calf serum, 100 U/ml penicillin and 100 μg/ml streptomycin in a humidified incubator containing 5% CO2 at 37° C. 0.25% trypsin is used for digestion and passage; cells under logarithmic growth phase are used in the experiment.
KYSE150 cells (1×10^6 cells/mouse) are intravenously injected into 6-week old male nude mice (Experimental Animal Center of the Chinese Academy of Science, Shanghai, China). The 6-week old male nude mice weight 20 g each. After injection of the cancer cells, the mice are divided into 3 groups randomly (n=8 in each group). DMSO, GPX (20 mg/kg) or 5-FU (20 mg/kg) are administered to the mice intraperitoneally every another day for 35 days. Body weight is measured every 2 days. 35 days later, lungs are removed and weighted. Using Bouin's solution, lungs are fixed, sliced and stained with HE to count number of lung nodules.

The subject of a further assay is esophageal cancer. In words: apoptosis in vitro. It is filed as cell-based.
Where [11] appears, read: different concentrations of GPX, observed 12 h and 36 h after scratch.
Setting [12] is: SFB 20 μM/well, positive control.

On to `CC1=C[C@H]2c3c(c(O)c(O)c4oc5cc(O)cc(O)c5c(=O)c34)[C@H](c3cc(O)c(O)c4oc5cc(O)cc(O)c5c(=O)c34)[C@H]2C(C)(C)C1` [GPX, Griffipavixanthone], for which the “inhibition of cell scratch migration in wound healing” value in the assay on Eca109 cells [1] (setting [11]) was “inhibits cell migration of Eca109 and KYSE150 in wound healing in a dose dependent manner”; in the assay on KYSE150 cells [2] (setting [11]), “inhibits cell migration of Eca109 and KYSE150 in wound healing in a dose dependent manner”. In addition, the “inhibition of cell migration (transwell)” value in the assay with Eca109 cells [3] was “inhibits cell migration of Eca109 and KYSE150 at 5, 10, 15, 20 μM in a dose dependent manner”; in the assay with KYSE150 cells [4] it was “inhibits cell migration of Eca109 and KYSE150 at 5, 10, 15, 20 μM in a dose dependent manner”. Besides, the “inhibition of cell invasion” value in the assay on Eca109 cells [5] was “inhibits cell invasion of Eca109 and KYSE150 at 5, 10, 15, 20 μM in a dose dependent manner”; in the assay on KYSE150 cells [6] it was “inhibits cell invasion of Eca109 and KYSE150 at 5, 10, 15, 20 μM in a dose dependent manner”. The “inhibition of cell proliferation (colony formation)” value in the assay with Eca109 cells [7] is “inhibits cell proliferation of Eca109 and KYSE150 at 5, 10, 15, 20 μM in a dose dependent manner”; with KYSE150 cells [8] it was “inhibits cell proliferation of Eca109 and KYSE150 at 5, 10, 15, 20 μM in a dose dependent manner”. Besides, the “G2/M cell cycle arrest” value in the assay with Eca109 cells [9] (5, 10, 15, 20 μM) was “induces G2/M cell cycle arrest in Eca109 and KYSE150 at 5, 10, 15, 20 μM in a dose dependent manner”; with KYSE150 cells [10] (5, 10, 15, 20 μM), “induces G2/M cell cycle arrest in Eca109 and KYSE150 at 5, 10, 15, 20 μM in a dose dependent manner”. Besides, in the assay with KYSE150 lung metastasis, the “inhibition of lung metastasis of KYSE150” value was “significantly inhibits lung metastasis of KYSE150”. Also, the lung weight entry in the assay on KYSE150 lung metastasis is given as “reduced lung weight”. The “number of lung tumor nodules” value is given as “reduced number of lung tumor nodules” with KYSE150 lung metastasis and “reduces lung nodules” in the assay on KYSE150 lung metastasis (listed as Griffipavixanthone). In addition, the “size / area of lung nodules (metastatic foci)” value in the assay on KYSE150 lung metastasis was “metastatic foci are sparse and smaller”; in the assay on KYSE150 lung metastasis (listed as Griffipavixanthone), “reduces lung nodules and area of pulmonary nodules in lung tissues”. Further, the promotion of apoptosis result in the assay on esophageal cancer was “without promoting apoptosis in vitro”.
On to `CNC(=O)c1cc(Oc2ccc(NC(=O)Nc3ccc(Cl)c(C(F)(F)F)c3)cc2)ccn1` [SFB, Sorafenib, reference compound], for which the “inhibition of cell scratch migration in wound healing” value in the assay on Eca109 cells [1] (setting [12]) and in the assay on KYSE150 cells [2] (setting [12]) was “significantly inhibit cell scratch migration” each time. Also, the “G2/M cell cycle arrest” value with Eca109 cells [9] (setting [12]) and in the assay with KYSE150 cells [10] (setting [12]) was “the results are in line with SFB” each time.
